Assay results as given in PMC3585409, “Structural Determinants for Activity and Specificity of the Bacterial Toxin LlpA” (PLoS Pathogens, 2013).
Read-outs that look alike come from different tables or passages of the source.

Columns and labels:
LlpABW [1] = molecular target: T1, LlpABW (Pseudomonas putida, UniProt Q8GEJ9); assay: ITC; type: binding
T1 construct: gene llpA; full-length, N-terminal His6 tag (pET28a, pCMPG6056), E. coli BL21(DE3); no signal peptide; N-domain Arg4-Pro135, C-domain Ala136-Gln253, hairpin Pro254-His275
T1 sequence (Q8GEJ9 1-276): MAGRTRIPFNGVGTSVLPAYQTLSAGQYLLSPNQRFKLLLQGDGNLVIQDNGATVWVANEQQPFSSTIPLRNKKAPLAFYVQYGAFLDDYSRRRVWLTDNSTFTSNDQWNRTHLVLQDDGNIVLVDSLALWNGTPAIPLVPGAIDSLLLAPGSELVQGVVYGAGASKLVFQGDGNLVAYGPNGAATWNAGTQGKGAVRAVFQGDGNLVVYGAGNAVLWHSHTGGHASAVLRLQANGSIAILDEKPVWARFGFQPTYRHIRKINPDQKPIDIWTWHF

LlpABW [2] = molecular target: T2, LlpABW (Pseudomonas putida, UniProt Q8GEJ9, V208Y); assay: ITC; type: binding
T2 construct: gene llpA; full-length, N-terminal His6 tag (pET28a, pCMPG6056), E. coli BL21(DE3); no signal peptide; N-domain Arg4-Pro135, C-domain Ala136-Gln253, hairpin Pro254-His275
T2 sequence (Q8GEJ9 1-276, stated change not applied): as the sequence (Q8GEJ9 1-276) above

[3] = bis-TRIS propane 20 mM, 200 mM NaCl, pH 7.0, 25°C, single-site fit n = 1, site III^C

| SMILES | Kd (LlpABW [1]; [3]) [mM] | other results |
| --- | --- | --- |
| OC[C@H]1O[C@H](OC[C@H]2OC(O)[C@@H](O)[C@@H](O[C@H]3O[C@H](CO)[C@@H](O)[C@H](O)[C@@H]3O)[C@@H]2O)[C@@H](O)[C@@H](O)[C@@H]1O (some centres unmarked) [Manα(1–3)[Manα(1–6)]Man] | 10.1 |  |
| OC[C@H]1O[C@H](OC[C@H]2OC(O)[C@@H](O)[C@@H](O)[C@@H]2O)[C@@H](O)[C@@H](O)[C@@H]1O (some centres unmarked) [Manα(1–6)Man] | 17.2 |  |
| OC[C@H]1O[C@H](O[C@@H]2C(O)O[C@H](CO)[C@@H](O)[C@@H]2O)[C@@H](O)[C@@H](O)[C@@H]1O (some centres unmarked) [Manα(1–2)Man] | 42.4 |  |
| OC[C@H]1O[C@H](O[C@H]2[C@H](O)[C@@H](CO)OC(O)[C@H]2O)[C@@H](O)[C@@H](O)[C@@H]1O (some centres unmarked) [Manα(1–3)Man] | 18.2 | Kd (LlpABW [2]; [3]): 23 mM |
| CC(=O)N[C@H]1[C@H](O[C@@H]2[C@@H](OC[C@H]3OC(O)[C@@H](O)[C@@H](O[C@H]4O[C@H](CO)[C@@H](O)[C@H](O)[C@@H]4O[C@@H]4O[C@H](CO)[C@@H](O)[C@H](O)[C@H]4NC(C)=O)[C@@H]3O)O[C@H](CO)[C@@H](O)[C@@H]2O)O[C@H](CO)[C@@H](O)[C@@H]1O (some centres unmarked) [GlcNAcβ(1–2)Manα(1–3)[GlcNAcβ(1–2)Manα(1–6)]Man] | 2.1 |  |
| CO[C@H]1O[C@H](CO)[C@@H](O)[C@H](O)[C@@H]1O [methyl-α-D-mannopyranoside] |  | Kd (LlpABW [2]; read-out: Kd): 58.8 mM; Kd (LlpABW [1]; read-out: Kd): 45.9 mM |
